Molecules are shown by their SMILES. Bounds are passed on as bounds.

For the experiment, the target named is T1, HCMV polymerase (Human cytomegalovirus, UniProt P08546).
T1 construct: made in house; host or cells: recombinant baculovirus-infected SF-9 cells
T1 sequence (P08546 whole entry): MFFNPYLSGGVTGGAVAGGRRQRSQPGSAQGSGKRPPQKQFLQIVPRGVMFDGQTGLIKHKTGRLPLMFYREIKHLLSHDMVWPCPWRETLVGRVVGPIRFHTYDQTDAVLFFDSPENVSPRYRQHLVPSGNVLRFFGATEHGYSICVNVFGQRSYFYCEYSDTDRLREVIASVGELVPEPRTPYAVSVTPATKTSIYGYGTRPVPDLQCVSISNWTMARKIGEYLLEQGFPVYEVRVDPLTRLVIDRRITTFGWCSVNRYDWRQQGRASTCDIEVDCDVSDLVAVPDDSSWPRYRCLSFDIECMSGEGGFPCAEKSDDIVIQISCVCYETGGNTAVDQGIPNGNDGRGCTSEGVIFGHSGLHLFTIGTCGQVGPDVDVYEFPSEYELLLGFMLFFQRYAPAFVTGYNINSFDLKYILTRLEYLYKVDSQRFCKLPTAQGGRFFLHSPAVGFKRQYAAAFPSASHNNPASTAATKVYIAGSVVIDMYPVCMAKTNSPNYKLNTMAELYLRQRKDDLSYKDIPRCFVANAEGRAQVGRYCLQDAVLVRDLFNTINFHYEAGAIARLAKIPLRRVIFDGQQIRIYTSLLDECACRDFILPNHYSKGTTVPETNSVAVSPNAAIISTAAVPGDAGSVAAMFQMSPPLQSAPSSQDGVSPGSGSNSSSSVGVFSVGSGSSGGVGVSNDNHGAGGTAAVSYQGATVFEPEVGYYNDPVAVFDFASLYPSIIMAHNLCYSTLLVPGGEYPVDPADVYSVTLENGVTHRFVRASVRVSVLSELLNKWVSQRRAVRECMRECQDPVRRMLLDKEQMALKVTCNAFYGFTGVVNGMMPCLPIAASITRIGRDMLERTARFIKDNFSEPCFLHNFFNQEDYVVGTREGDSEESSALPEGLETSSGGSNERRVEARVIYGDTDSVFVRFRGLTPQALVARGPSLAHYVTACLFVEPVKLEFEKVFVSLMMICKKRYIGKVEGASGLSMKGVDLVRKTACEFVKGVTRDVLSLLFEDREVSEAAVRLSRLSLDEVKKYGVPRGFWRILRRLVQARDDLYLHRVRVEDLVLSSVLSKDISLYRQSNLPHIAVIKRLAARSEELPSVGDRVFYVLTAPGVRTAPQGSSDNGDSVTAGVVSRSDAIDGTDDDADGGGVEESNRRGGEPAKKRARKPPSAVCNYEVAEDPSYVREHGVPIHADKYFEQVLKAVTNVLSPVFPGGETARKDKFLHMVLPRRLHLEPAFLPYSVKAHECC
Description: HCMV polymerase scintillation proximity assay (SPA), modified version. Type of experiment: biochemical. Particulars: CMV polymerase; Table 1; modified assay with 4.5 mM DTT, compounds in 100% DMSO; read-out: Antiviral Selective Polymerase IC50 Values, CMV. The method in brief: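 SPA measuring 3H-dTTP (90 nM) incorporation on 6 nM biotinylated poly(dA)-oligo(dT) by SF-9-expressed enzyme, pH 7.5 HEPES/KCl/MgCl2/BSA buffer with or without 2 mM CHAPS. Run at 25° C or 37° C, stopped with EDTA while linear (HCMV 30 min); IC50 from linear regression. Modified format adds 4.5 mM DTT, compounds diluted in 100% DMSO.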
In the case of `COCCOc1c(F)cc2c(O)c(C(=O)NCc3ccc(Cl)cc3)cnc2c1OCCOC` [Example 85, N-((4-Chlorophenyl)methyl)-6-fluoro-7,8-di(2-(methoxy)ethoxy)-4-hydroxy-3-quinolinecarboxamide], the 50% inhibitory concentration (IC50) came to 18.1 µM.
On to `O=C(NCc1ccc(Cl)cc1)c1cnc2c(F)c(Oc3ccc(CO)cc3)c(F)cc2c1O` [Example 81, N-((4-Chlorophenyl)methyl)-6,8-difluoro-4-hydroxy-7-(4-(hydroxymethyl)phenoxy)-3-quinolinecarboxamide], for which the half-inhibitory concentration (IC50) stood at 7.8 µM.
As for `CC(=O)/C=C/c1cc(F)c2ncc(C(=O)NCc3ccc(Cl)cc3)c(O)c2c1` [Example 153, N-(4-Chlorobenzyl)-8-fluoro-4-hydroxy-6-[(E)-3-oxo-1-butenyl]-3-quinolinecarboxamide], the figure is 8.3 µM; as for `O=C(c1ccccc1)c1ccc2ncc(C(=O)NCc3ccc(Cl)cc3)c(O)c2c1` [Example 280, 6-Benzoyl-N-(4-chlorobenzyl)-4-hydroxy-3-quinolinecarboxamide], 57.8 µM.
Take `O=C(NCc1ccc(Cl)cc1)c1cnc2ccc(CCCOP(=O)(O)O)cc2c1O` [Example 269, 3-(3-{[(4-Chlorobenzyl)amino]carbonyl-4-hydroxy-6-quinolinyl)propyldihydrogen phosphate]: the IC50 amounted to 9.8 µM.
Take `O=C(NCc1ccc(Cl)cc1)c1cnc2c(F)cc(-c3cc(Br)cs3)cc2c1O` [Example 97, 6-(4-Bromo-2-thienyl)-N-(4-chlorobenzyl)-8-fluoro-4-hydroxy-3-quinolinecarboxamide]: the IC50 stood at 18.6 µM.
Take `Nc1ccc(CNS(=O)(=O)c2cc(F)c3ncc(C(=O)NCc4ccc(Cl)cc4)c(O)c3c2)cc1` [Example 266, 6-{[(4-aminobenzyl)amino]sulfonyl}-N-(4-chlorobenzyl)-8-fluoro-4-hydroxy-3-quinolinecarboxamide]: the IC50 amounted to 10.1 µM.
Turning to `O=C(NCc1ccc(Cl)cc1)c1cnc2c(F)cc(CCCCCO)cc2c1O` [Example 154, N-(4-Chlorobenzyl)-8-fluoro-4-hydroxy-6-(5-hydroxypentyl)-3-quinolinecarboxamide], the concentration for half-maximal inhibition (IC50) was 3.4 µM.
In the case of `Cc1cccc2ncc(C(=O)NCc3ccc(Cl)cc3)c(O)c12` [Example 62, N-((4-Chlorophenyl)methyl)-4-hydroxy-5-methyl-3-quinoline-carboxamide], the 50% inhibitory concentration (IC50) was determined as 4.6 µM.
In the case of `O=C(NCc1ccc(Cl)cc1)c1cnc2c(F)cc(S(=O)(=O)NCCC3=CCCCC3)cc2c1O` [Example 237, N-(4-chlorobenzyl)-6-({[2-(1-cyclohexen-1-yl)ethyl]amino}-sulfonyl)-8-fluoro-4-hydroxy-3-quinolinecarboxamide], the IC50 was determined as 6.9 µM.
With `O=C(NCc1ccc(Cl)cc1)c1cnc2c(F)cc(CO)cc2c1O` [Example 141, N-(4-Chlorobenzyl)-8-fluoro-4-hydroxy-6-(hydroxymethyl)-3-quinolinecarboxamide], the IC50 came to 10.1 µM.
In the case of `COc1ccc(CNS(=O)(=O)c2cc(F)c3ncc(C(=O)NCc4ccc(Cl)cc4)c(O)c3c2)c(OC)c1` [Example 241, N-(4-chlorobenzyl)-6-{[(2,4-dimethoxybenzyl)amino]sulfonyl}-8-fluoro-4-hydroxy-3-quinolinecarboxamide], the IC50 worked out at 16 µM.
For `O=C(NCc1ccc(Cl)cc1)c1cnc2c(F)c(F)ccc2c1O` [Example 18, N-[(4-Chlorophenyl)methyl]-7,8-difluoro-4-hydroxy-3-quinoline-carboxamide], the half-maximal inhibitory concentration (IC50) is below 3.1 µM.
With `CC(C)(C)O[PH](=O)OCCCc1cc(F)c2ncc(C(=O)NCc3ccc(Cl)cc3)c(O)c2c1` (stereo not drawn) [Example 271, tert-Butyl 3-(3-{[(4-chlorobenzyl)amino]carbonyl}-8-fluoro-4-hydroxy-6-quinolinyl)propyl phosphonate], the IC50 worked out at 20.4 µM.
As for `O=C(NCc1ccc(Cl)cc1)c1cnc2c(F)cc(S(=O)(=O)NCc3ccccc3Sc3ccccc3CO)cc2c1O` [Example 260], the figure is 5.7 µM; as for `COc1c(F)cc2c(O)c(C(=O)NCc3ccc(Cl)cc3)cnc2c1OC` [Example 80, N-((4-Chlorophenyl)methyl)-7,8-dimethoxy-6-fluoro-4-hydroxy-3-quinolinecarboxamide], 2.4 µM; as for `O=C(NCc1ccc(Cl)cc1)c1cnc2c(C(F)(F)F)cc(CCCO)cc2c1O` [Example 123, N-(4-Chlorobenzyl)-4-hydroxy-6-(3-hydroxypropyl)-8-(trifluoromethyl)-3-quinolinecarboxamide], 2.2 µM.
As for `O=C(NCc1ccc(Cl)cc1)c1cnc2c(OC(F)(F)F)cc(C#CCO)cc2c1O` [Example 122, N-(4-Chlorobenzyl)-4-hydroxy-6-(3-hydroxy-1-propynyl)-8-(trifluoromethoxy)-3-quinolinecarboxamide], the IC50 stood at 1.8 µM.
Regarding `O=C(NCc1ccc(Cl)cc1)c1cnc2c(F)cc(S(=O)(=O)NCCc3c[nH]cn3)cc2c1O` [Example 207, N-(4-chlorobenzyl)-8-fluoro-4-hydroxy-6-({[2-(1H-imidazol-4-yl)ethyl]amino}sulfonyl)-3-quinolinecarboxamide], the IC50 was determined as 14.4 µM.
Turning to `Nc1cc(F)c2ncc(C(=O)NCc3ccc(Cl)cc3)c(O)c2c1` [Example 186, 6-Amino-N-(4-chlorobenzyl)-8-fluoro-4-hydroxy-3-quinolinecarboxamide], the IC50 came out at 13.8 µM.
On to `CCSCCNS(=O)(=O)c1cc(F)c2ncc(C(=O)NCc3ccc(Cl)cc3)c(O)c2c1` [Example 247], for which the half-maximal inhibitory concentration (IC50) came to 10.2 µM.
In the case of `N#Cc1ccc2ncc(C(=O)NCc3ccc(Cl)cc3)c(O)c2c1` [Example 24, N-[(4-Chlorophenyl)methyl]-6-cyano-4-hydroxy-3-quinoline-carboxamide], the IC50 came out at 4.9 µM.
As for `O=C(NCc1ccc(Cl)cc1)c1cnc2cc(NS(=O)(=O)Cc3ccccc3)ccc2c1O` [Example 34, N-[(4-Chlorophenyl)methyl]-4-hydroxy-7-[[(phenylmethyl)-sulfonyl]amino]-3-quinolinecarboxamide], the figure is 17.9 µM; as for `NC(=O)CNS(=O)(=O)c1cc(F)c2ncc(C(=O)NCc3ccc(Cl)cc3)c(O)c2c1` [Example 265, 6-{[(2-amino-2-oxoethyl)amino]sulfonyl}-N-(4-chlorobenzyl)-8-fluoro-4-hydroxy-3-quinolinecarboxamide], 11.4 µM.
To `CSc1cccc2c(=O)c(C(=O)NCc3ccc(Cl)cc3)c[nH]c12` [Example 65, N-[(4-Chlorophenyl)methyl]-1,4-dihydro-8-(methylthio)-4-oxo-3-quinolinecarboxamide] belongs 3.3 µM; to `O=C(NCc1ccc(Cl)cc1)c1cnc2c(F)cc(S(=O)(=O)NCCSCCO)cc2c1O` [Example 263, N-(4-chlorobenzyl)-8-fluoro-4-hydroxy-6-[({2-[(2-hydroxyethyl)-sulfanyl]ethyl}amino)sulfonyl]-3-quinolinecarboxamide], 23.1 µM.
Consider `CSc1ccc2c(O)c(C(=O)NCc3ccc(Cl)cc3)cnc2c1` [Example 278, N-(4-Chlorobenzyl)-4-hydroxy-7-(methylsulfanyl)-3-quinolinecarboxamide], for which the IC50 was determined as 2.1 µM.
For `COCCOc1c(F)c(F)cc2c(O)c(C(=O)NCc3ccc(Cl)cc3)cnc12` [Example 84, N-((4-Chlorophenyl)methyl)-6,7-difluoro-4-hydroxy-8-(2-(methoxy)ethoxy)-3-quinolinecarboxamide], the 50% inhibitory concentration (IC50) was 0.79 µM.
For the molecule `O=C(Nc1ccccc1)OCCCc1cc(F)c2ncc(C(=O)NCc3ccc(Cl)cc3)c(O)c2c1` [Example 159, 3-(3-{[(4-Chlorobenzyl)amino]carbonyl}-8-fluoro-4-hydroxy-6-quinolinyl)propyl phenylcarbamate], the IC50 is 5 µM.
For `O=C(NCc1ccc(Cl)cc1)c1cnc2c(F)cc(C(=O)N3CCOCC3)cc2c1O` [Example 180, N-(4-Chlorobenzyl)-8-fluoro-4-hydroxy-6-(4-morpholinylcarbonyl)-3-quinolinecarboxamide], the IC50 was determined as 28.2 µM.
To `CC(C)(C)OP(=O)(OCCCc1cc(F)c2ncc(C(=O)NCc3ccc(Cl)cc3)c(O)c2c1)OC(C)(C)C` [Example 267, Di(tert-butyl) 3-(3-{[(4-chlorobenzyl)amino]carbonyl}-8-fluoro-4-hydroxy-6-quinolinyl)propyl phosphate] belongs 52.2 µM.
Turning to `O=C(NCc1ccc(Cl)cc1)c1cnc2c(F)cc(S(=O)(=O)NCc3cccc(I)c3)cc2c1O` [Example 242, N-(4-chlorobenzyl)-8-fluoro-4-hydroxy-6-{[(3-iodobenzyl)amino]sulfonyl}-3-quinolinecarboxamide], the IC50 was 8.4 µM.
With `O=C(NCc1ccc(Cl)cc1)c1cnc2c(F)cc(S(=O)(=O)NCCNc3cccc4ccccc34)cc2c1O` [Example 238, N-(4-chlorobenzyl)-8-fluoro-4-hydroxy-6-({[2-(1-naphthylamino)ethyl]amino}sulfonyl)-3-quinolinecarboxamide], the IC50 was found to be 1.6 µM.
Turning to `O=C(NCc1ccc(Cl)cc1)c1cnc2c(F)cc(S(=O)(=O)NCCO)cc2c1O` [Example 229, N-(4-chlorobenzyl)-8-fluoro-4-hydroxy-6-{[(2-hydroxyethyl)amino]sulfonyl}-3-quinolinecarboxamide], the IC50 was determined as 10.7 µM.
As for `COc1ccc(S(=O)(=O)Nc2cc(F)c3ncc(C(=O)NCc4ccc(Cl)cc4)c(O)c3c2)cc1` [Example 187, N-(4-Chlorobenzyl)-8-fluoro-4-hydroxy-6-{[(4-methoxyphenyl)-sulfonyl]amino}-3-quinolinecarboxamide], the figure is 17.7 µM; as for `O=C(NCc1ccc(Cl)cc1)c1cnc2c(F)cc(C#CCCO)cc2c1O` [Example 94, N-(4-Chlorobenzyl)-8-fluoro-4-hydroxy-6-(4-hydroxy-1-butynyl)-3-quinolinecarboxamide], 5.3 µM.

The values above are taken from patent US6093732A, “4-hydroxyquinoline-3-carboxamides and hydrazides as antiviral agents” (Pharmacia & Upjohn Company, priority 1998, dated 2000).
